Experimental data reported in patent US20240327415A1, “Multicomponent Complexes, Including Salts, Crystalline Forms, and Hydrates and Solvates of ENT1 Inhibitors” (iTeos Belgium SA, priority 2023, published 2024).
Blank lines part the entries; values can stand above or below the compound they belong to.

Assays:
Assay type in all cases: physicochemical
[1] = Dynamic Vapor Sorption (DVS)
Method: (§1) METHOD A: In Example 11, approximately 5-15 mg of sample was placed into a mesh vapor sorption balance pan and loaded into either a DVS Intrinsic or DVS Advantage dynamic vapor sorption balance by Surface Measurement Systems. The sample was subjected to a ramping profile from 40-90% relative humidity (RH) at 10% increments, maintaining the sample at each step until a stable weight had been achieved (dm/dt 0.004%, minimum step length 30 minutes, maximum step length 500 minutes) at 25° C. After completion of the sorption cycle, the sample was dried using the same procedure to 0% RH and then a second sorption cycle back to 40% RH was carried out. Two cycles were performed. The weight change during the sorption/desorption cycles were plotted, allowing the hygroscopic nature of the sample to be determined. XRPD analysis was then carried out on the residual solid.
as §1, with “B:” for “A:”, “Examples 2A, 3, 14, and 17,” for “Example 11,”, “10-20” for “5-15”, “determined.” for “determined. XRPD analysis was then carried out on the residual solid.”
as §1, with “Approximately 10-20” for “METHOD A: In Example 11, approximately 5-15”, “RH” for “relative humidity (RH)”, “min,” for “minutes,”, “min)” for “minutes)”, “determined.” for “determined. XRPD analysis was then carried out on the residual solid.”

[2] = seven-day solid stability studies (ambient; 40° C./75% RH; 80° C.), XRPD and HPLC; set-up: key to XRPD Analysis: Amorphous Compound 1 (free base); Crystalline Form 1 Compound 1 (free base); conditions: for degradation by HPLC: after 7 days storage at 40° C./75% RH and ambient conditions; for decrease in purity by HPLC: after 7 days storage at 80° C.
Method: In the experiment, one set of vials was exposed to ambient light, temperature and humidity conditions. Another was exposed openly to 40° C. and 75% RH conditions and a third was sealed and exposed to 80° C. conditions. After 7 days, XRPD and HPLC measurements were collected.
Example 12-Stability Studies of Amorphous Compound 1 (free base) and Crystalline Form 1 Compound 1 (free base): Seven-day stability studies were carried out comparing amorphous Compound 1 (free base) and crystalline Form 1 Compound 1 (free base) at 40° C./75% RH, under ambient conditions and at 80° C. After storage at 40° C./75% RH and 80° C., the amorphous material formed glassy solids which were pale yellow (40° C./75% RH) or orange (80° C.). It is likely that the material melted and re-solidified at 80° C. and deliquesced at 40° C./75% RH. […] (decrease in purity of ca. 11% area).
Example 15-Stabilities Studies-Crystalline Form 3 Compound 1 di(hydrogen sulfate) and Crystalline Form 4 Compound 1 mono(hydrogen sulfate): Seven-day stability studies were carried out on the prepared crystalline Form 3 Compound 1 di(hydrogen sulfate) and crystalline Form 4 Compound 1 mono(hydrogen sulfate) using the following conditions: (1) Ambient light, temperature and humidity conditions (open vial); (2) 40° C./75% RH (open vial); and (3) 80° C. (closed vial). After 7 days of storage under the specified conditions, XRPD and HPLC analyses were carried out on the residual solid materials, and the results are summarized in Table 51.
Example 18-Seven Day Stability Study on Crystalline Form 2 Compound 1 di(hydrogen sulfate) trihydrate: A 7-day stability study was conducted on crystalline Form 2 Compound 1 di(hydrogen sulfate) trihydrate using the following conditions: (1) ambient light, temperature, and humidity conditions (open vial); (2) 40° C., 75% RH (open vial); and (3) 80° C. (closed vial). After 7 days of storage under the specified, XRPD and HPLC analyses were carried out on the residual solid materials.

[3] = salt screen, XRPD of damp, dried and 40° C./75% RH stored samples (Salt Preparation Methods 1 and 2); set-up: key to XRPD Analysis Damp/Dry: A = amorphous; Evap. = isolated via evaporation; conditions: Maleic acid, 1 equiv.; IPA:H2O (75:25% v/v); AS tBME; (evap.)
Method: (§2) Salt Preparation Method 1: Approximately 25 mg of Compound 1 (free base) was weighed out into 1.5 mL screw-cap vials and a stirrer bar was added. For solid counterions, the appropriate amount of acid (1.0 or 2.0 equiv.) was weighed into separate 1.5 mL screw-cap vials. 100 μL of the appropriate solvent system was added to both the Compound 1 and the solid counterions. Stock solutions of liquid counterions were prepared, such that 100 μL contained 1.0 or 2.0 equiv. of acid. See counterion and solvent lists in Table 60 and Table 61 respectively.
(§3) The samples were stirred at 40° C. for 5-10 min and then the acid solutions were added to Compound 1, rinsing out the transfer vial with a further 50 μL of solvent. […] Experiments were temperature cycled between 40° C. and 5° C. (1 h hold; 0.1° C./min ramp/cool) for ca. 24-68 h. Anti-solvent addition (ASA) was carried out to slurries at 5° C. then experiments were heated to 30° C. over 1 h. ASA was carried out at 30° C. or 40° C. where clear solutions or gums were observed.
(§4) Temperature cycling was then continued for ca. 16-69 h, followed by further ASA and temperature cycling if required. Material was isolated at 5° C. and analyzed damp by XRPD. All isolated material was dried under vacuum at ca. 40° C. for ca. 17-91 h then re-analyzed by XRPD. The XRPD plate was stored at 40° C./75% RH for 24-48 h and then samples re-analyzed. Solutions were stored uncapped at ambient temperature to evaporate. Any residual solids were analyzed by XRPD.
(§5) Salt Preparation Method 2: The general procedure adopted in preparing the potential salts is outlined below. A known mass of Compound 1 (free base) and a known volume of the appropriate solvent system were added to 20 mL scintillation vials. The required mol. equiv. of the appropriate counterions were added to the vials as solutions or slurries in the corresponding solvent system.
(§6) The experiments were stirred at 40° C. for ca. 1 h, and then temperature cycled between 40° C. and 5° C. with 0.1° C./min ramp and 1 h hold between each step. Anti-solvent additions and subsequent slurrying at 5° C. were employed in order to facilitate crystallization. […] The damp and dried solids were subsampled and analyzed by XRPD. Where applicable, the dried solids were stored at 40° C./75% RH for 24-48 h in order to improve the crystallinity and/or facilitate solid form conversion to the desired form.

[4] = as above; set-up: key: A = amorphous; Evap. = isolated via evaporation
Method: as §2, §3, §4, §5, §6

[5] = Maleic acid, 1 equiv., Acetonitrile, AS tBME
[6] = Maleic acid, 1 equiv., Ethanol, AS Heptane
[7] = Maleic acid, 1 equiv., Ethyl acetate, AS Heptane
[8] = Maleic acid, 1 equiv., MEK, AS Heptane
[9] = Maleic acid, 1 equiv., THF, AS Heptane
[10] = Hydrochloric acid, 1 equiv., Acetonitrile, AS tBME, (evap.)
[11] = Hydrochloric acid, 1 equiv., Ethanol*, AS Heptane, (evap.)
[12] = Hydrochloric acid, 1 equiv., Ethyl acetate, AS Heptane
[13] = Hydrochloric acid, 1 equiv., IPA:H2O (75:25% v/v), AS tBME, (evap.)
[14] = Hydrochloric acid, 1 equiv., MEK, AS Heptane
[15] = Hydrochloric acid, 1 equiv., THF, AS Heptane
[16] = Benzenesulfonic acid, 2 equiv., Acetonitrile, AS tBME
[17] = Benzenesulfonic acid, 2 equiv., Ethanol, AS Heptane
[18] = Benzenesulfonic acid, 2 equiv., Ethyl acetate, AS Heptane
[19] = Benzenesulfonic acid, 2 equiv., IPA:H2O (75:25), AS tBME
[20] = Benzenesulfonic acid, 2 equiv., MEK, AS Heptane
[21] = Benzenesulfonic acid, 2 equiv., THF, AS Heptane

Compound: COc1cc(C(=O)O[C@@H]2CCCOc3cc(cc(OC)c3OC)C(=O)NCCCN3CCCN(CC2)CC3)cc(OC)c1OC [amorphous Compound 1 (free base)]
hygroscopicity ([1]; 25° C.): hygroscopic | Post-Storage Observations ([2]; 7 days, 40° C./75% RH): Pale yellow | Solid Purity ([2]; 7 days, 40° C./75% RH): 98.8 % area | XRPD Analysis ([2]; 7 days, 40° C./75% RH): A | Post-Storage Observations ([2]; 7 days, 80° C.): Orange glassy | Solid Purity ([2]; 7 days, 80° C.): 87.5 % area | XRPD Analysis ([2]; 7 days, 80° C.): A | Post-Storage Observations ([2]; 7 days, Ambient): White solid | Solid Purity ([2]; 7 days, Ambient): 98.9 % area | XRPD Analysis ([2]; 7 days, Ambient): A | solid form by XRPD after storage ([2]; 7 days, all storage conditions): remained amorphous | degradation by HPLC [2]: no significant degradation | decrease in purity by HPLC [2]: ca. 11 % area | Input Material Purity ([2]; before storage): 98.8 % area

XRPD Analysis Damp/Dry [3]: A (evap.) | XRPD Analysis 40° C. 75% RH [4, 5]: A | XRPD Analysis Damp [4, 5]: A | XRPD Analysis Dry [4, 5]: A | XRPD Analysis 40° C. 75% RH [4, 6]: A | XRPD Analysis Damp [4, 6]: A | XRPD Analysis Dry [4, 6]: A | XRPD Analysis 40° C. 75% RH [4, 7]: A | XRPD Analysis Damp [4, 7]: A | XRPD Analysis Dry [4, 7]: A | XRPD Analysis 40° C. 75% RH ([4]; Maleic acid, 1 equiv., IPA:H2O (75:25% v/v), AS tBME): A | XRPD Analysis 40° C. 75% RH [4, 8]: A | XRPD Analysis Damp [4, 8]: A | XRPD Analysis Dry [4, 8]: A | XRPD Analysis 40° C. 75% RH [4, 9]: A | XRPD Analysis Damp [4, 9]: A | XRPD Analysis Dry [4, 9]: A
Compound: O=C(O)/C=C\C(=O)O [Maleic acid, 1 equiv.]

Compound: Cl [Hydrochloric acid, 1 equiv.]
XRPD Analysis 40° C. 75% RH ([4]; Hydrochloric acid, 1 equiv., Acetonitrile, AS tBME): A | XRPD Analysis Damp [4, 10]: A | XRPD Analysis Dry [4, 10]: A | XRPD Analysis 40° C. 75% RH ([4]; Hydrochloric acid, 1 equiv., Ethanol*, AS Heptane): A | XRPD Analysis Damp [4, 11]: A | XRPD Analysis Dry [4, 11]: A | XRPD Analysis 40° C. 75% RH [4, 12]: A | XRPD Analysis Damp [4, 12]: A | XRPD Analysis Dry [4, 12]: A | XRPD Analysis 40° C. 75% RH ([4]; Hydrochloric acid, 1 equiv., IPA:H2O (75:25% v/v), AS tBME): A | XRPD Analysis Damp [4, 13]: A | XRPD Analysis Dry [4, 13]: A | XRPD Analysis 40° C. 75% RH [4, 14]: A | XRPD Analysis Damp [4, 14]: A | XRPD Analysis Dry [4, 14]: A | XRPD Analysis 40° C. 75% RH [4, 15]: A | XRPD Analysis Damp [4, 15]: A | XRPD Analysis Dry [4, 15]: A

Compound: COc1cc(C(=O)O[C@@H]2CCCOc3cc(cc(OC)c3OC)C(=O)NCCCN3CCCN(CC2)CC3)cc(OC)c1OC [Form 1 Compound 1]
XRPD Analysis ([2]; 7 days, 40° C./75% RH): A | Post-Storage Observations ([2]; 7 days, 80° C.): Orange glassy | Solid Purity ([2]; 7 days, 80° C.): 84.1 % area | XRPD Analysis ([2]; 7 days, 80° C.): 1 | Post-Storage Observations ([2]; 7 days, Ambient): White solid | Solid Purity ([2]; 7 days, Ambient): 99.9 % area | XRPD Analysis ([2]; 7 days, Ambient): A

XRPD Analysis 40° C. 75% RH [4, 16]: A | XRPD Analysis Damp [4, 16]: A | XRPD Analysis Dry [4, 16]: A | XRPD Analysis 40° C. 75% RH [4, 17]: A | XRPD Analysis Damp [4, 17]: A | XRPD Analysis Dry [4, 17]: A | XRPD Analysis 40° C. 75% RH [4, 18]: A | XRPD Analysis Damp [4, 18]: A | XRPD Analysis Dry [4, 18]: A | XRPD Analysis 40° C. 75% RH [4, 19]: A | XRPD Analysis Damp [4, 19]: A | XRPD Analysis Dry [4, 19]: A | XRPD Analysis 40° C. 75% RH [4, 20]: A | XRPD Analysis Damp [4, 20]: A | XRPD Analysis Dry [4, 20]: A | XRPD Analysis 40° C. 75% RH [4, 21]: A | XRPD Analysis Damp [4, 21]: A | XRPD Analysis Dry [4, 21]: A
Compound: O=S(=O)(O)c1ccccc1 [Benzenesulfonic acid, 2 equiv.]

Compound: COc1cc(C(=O)O[C@@H]2CCCOc3cc(cc(OC)c3OC)C(=O)NCCCN3CCCN(CC2)CC3)cc(OC)c1OC [crystalline Form 1 Compound 1 (free base)]
hygroscopicity ([1]; 25° C.): slightly hygroscopic | post-DVS sample (XRPD / appearance) ([1]; DVS at 25° C.): predominantly amorphous material was recovered | moisture uptake (DVS) ([1]; at 80% RH, second sorption cycle, after likely formation of amorphous material): 3.3% | moisture uptake (DVS) ([1]; between 40-80% RH, first sorption cycle, 25° C.): 0.9% | moisture uptake (DVS) ([1]; between 80-90% RH, 25° C.): 3.8% | solid form by XRPD after storage ([2]; 7 days, 40° C./75% RH): amorphous material was recovered | solid form by XRPD after storage ([2]; 7 days, 80° C.): amorphous material was recovered | solid form by XRPD after storage ([2]; 7 days, ambient conditions): retained | degradation by HPLC [2]: no significant degradation | decrease in purity by HPLC [2]: ca. 15 % area

Compound: COc1cc(C(=O)O[C@@H]2CCCOc3cc(cc(OC)c3OC)C(=O)NCCCN3CCCN(CC2)CC3)cc(OC)c1OC.O=S(=O)(O)O [Form 4 mono(hydrogen sulfate)]
HPLC ([2]; 7 days, 40° C./75% RH (open vial)): 99.87 % area | HPLC ([2]; 7 days, 40° C./75% RH, open vial): 99.87 % area | HPLC ([2]; 7 days, 80° C. (closed vial)): 99.64 % area | XRPD ([2]; 7 days, 80° C. (closed vial)): Amorphous* | HPLC ([2]; 7 days, 80° C., sealed): 99.64 % area | XRPD ([2]; 7 days, 80° C., sealed): Amorphous* | HPLC ([2]; 7 days, Ambient (open vial)): 99.89 % area | HPLC ([2]; 7 days, Ambient, open vial): 99.89 % area | HPLC ([2]; Input sample): 99.66 % area
